Experimental data from patent publication US20230107642A1 (Erasca, Inc., priority 2020, published 2023).

Target: T1, K-Ras G12C (Homo sapiens, UniProt P01116, G12C)
T1 construct: This protein contained 188 amino acids in total, including an N-terminal 6-Histidine tag; made in house; host or cells: E. coli BL21
Assay: CAF assay (% CAF; method in Example 7, not in this part)
Type: binding
Settings: for % CAF @ 10 μM, 1 h: Table 4

| SMILES | % CAF @ 10 uM, 1h (10 uM, 1 h, Table 3) [%] | % CAF @ 10 uM, 1h (10 uM compound, 1 h incubation) [%] | other results |
| --- | --- | --- | --- |
| C=CC(=O)N1CCN(c2nc(=O)n3c4c(c(-c5ccc(F)cc5F)c(OC)cc24)SCC3)[C@@H](C)C1 [Example 103, 7-((S)-4-acryloyl-2-methylpiperazin-1-yl)-10-(2,4-difluorophenyl)-9-methoxy-2,3-dihydro-5H-[1,4]thiazino[2,3,4-ij]quinazolin-5-one] | 92.5 | – | – |
| C=C(F)C(=O)N1C2CC(=O)CC1CN(c1nc(=O)n3c4c(c(-c5ccc(F)cc5F)c(C(F)(F)F)cc14)SCC3)C2 [Example 418, 10-(2,4-difluorophenyl)-7-(9-(2-fluoroacryloyl)-7-oxo-3,9-diazabicyclo[3.3.1]nonan-3-yl)-9-(trifluoromethyl)-2,3-dihydro-5H-[1,4]thiazino[2,3,4-ij]quinazolin-5-one] | – | 58 | – |
| C=CC(=O)N1CCN(c2nc(=O)n3c4c(c(-c5ccc(F)cc5F)c(Cl)cc24)SCC3)[C@@H](C)C1 [Example 193, 7-((S)-4-acryloyl-2-methylpiperazin-1-yl)-9-chloro-10-(2,4-difluorophenyl)-2,3-dihydro-5H-[1,4]thiazino[2,3,4-ij]quinazolin-5-one] | 97 | – | – |
| C=CC(=O)N1C2CN(c3nc(=O)n4c5c(c(-c6ccc(F)cc6F)c(Cl)cc35)SCC4)CC1CS(=O)(=O)C2 [Example 84, 7-(9-acryloyl-3,3-dioxido-3-thia-7,9-diazabicyclo[3.3.1]nonan-7-yl)-9-chloro-10-(2,4-difluorophenyl)-2,3-dihydro-5H-[1,4]thiazino[2,3,4-ij]quinazolin-5-one] | 43.8 | – | – |
| C=C(F)C(=O)N1C2CC(=O)CC1CN(c1nc(=O)n3c4c(c(-c5ccc(F)cc5F)c(C(F)(F)F)cc14)SCCC3)C2 [Example 451, 11-(2,4-difluorophenyl)-8-(9-(2-fluoroacryloyl)-7-oxo-3,9-diazabicyclo[3.3.1]nonan-3-yl)-10-(trifluoromethyl)-3,4-dihydro-2H,6H-[1,4]thiazepino[2,3,4-ij]quinazolin-6-one] | – | 61 | – |
| C=CC(=O)N1CCN(c2nc(=O)n3c4c(c(-c5ccc(F)cc5F)c(Cl)cc24)SC[C@H]3CC2CCN(CC(F)F)CC2)[C@@H](C)C1 [Example 348, (3R)-7-((S)-4-acryloyl-2-methylpiperazin-1-yl)-9-chloro-3-((1-(2,2-difluoroethyl)piperidin-4-yl)methyl)-10-(2,4-difluorophenyl)-2H-[1,4]thiazino[2,3,4-ij]quinazolin-5(3H)-one] | – | – | % CAF @ 10 μM, 1 h (1 h): 92% |
| C=CC(=O)N1CCN(c2nc(=O)n3c4c(c(-c5c(O)cccc5F)c(Cl)cc24)SCC3)[C@@H](C)C1 [Example 168, 7-((S)-4-acryloyl-2-methylpiperazin-1-yl)-9-chloro-10-(2-fluoro-6-hydroxyphenyl)-2,3-dihydro-5H-[1,4]thiazino[2,3,4-ij]quinazolin-5-one] | 30.6 | – | – |
| C=CC(=O)N1CCN(c2nc(=O)n3c4c(c(-c5ccc(F)cc5F)c(Cl)cc24)SC[C@@H]3CCCN2C[C@@H]3C[C@H]2CO3)[C@@H](C)C1 [Example 94, (3S)-3-(3-((1S,4S)-2-oxa-5-azabicyclo[2.2.1]heptan-5-yl)propyl)-7-((S)-4-acryloyl-2-methylpiperazin-1-yl)-9-chloro-10-(2,4-difluorophenyl)-2,3-dihydro-5H-[1,4]thiazino[2,3,4-ij]quinazolin-5-one] | 94.7 | – | – |
| C=CC(=O)N1CCN(c2nc(=O)n3c4c(c(-c5ccc(F)cc5F)c(Cl)cc24)SCC3)[C@H](C)C1 [Example 158, 7-((R)-4-acryloyl-2-methylpiperazin-1-yl)-9-chloro-10-(2,4-difluorophenyl)-2,3-dihydro-5H-[1,4]thiazino[2,3,4-ij]quinazolin-5-one] | 64 | – | – |
| C=CC(=O)N1C2CC(=O)CC1CN(c1nc(=O)n3c4c(c(-c5ccc(F)cc5F)c(C(F)(F)F)cc14)SCCC3)C2 [Example 486, 8-(9-acryloyl-7-oxo-3,9-diazabicyclo[3.3.1]nonan-3-yl)-11-(2,4-difluorophenyl)-10-(trifluoromethyl)-3,4-dihydro-2H,6H-[1,4]thiazepino[2,3,4-ij]quinazolin-6-one] | – | 95 | – |
| C=CC(=O)N1CCN(c2nc(=O)n3c4c(c(-c5cccc6c5C(=O)NC6)c(Cl)cc24)SCC3)[C@@H](C)C1 [Example 96, 7-((S)-4-acryloyl-2-methylpiperazin-1-yl)-9-chloro-10-(3-oxoisoindolin-4-yl)-2,3-dihydro-5H-[1,4]thiazino[2,3,4-ij]quinazolin-5-one] | 54 | – | – |
| C/C=C/C(=O)N1C2CC(=O)CC1CN(c1nc(=O)n3c4c(c(-c5ccc(F)cc5F)c(C(F)(F)F)cc14)SCC3)C2 [Example 452, (E)-7-(9-(but-2-enoyl)-7-oxo-3,9-diazabicyclo[3.3.1]nonan-3-yl)-10-(2,4-difluorophenyl)-9-(trifluoromethyl)-2,3-dihydro-5H-[1,4]thiazino[2,3,4-ij]quinazolin-5-one] | – | 63 | – |
| C=CC(=O)N1CCN(c2nc(=O)n3c4c(c(-c5c(F)cc(F)cc5F)c(Cl)cc24)SC[C@@H]3CCCN2C[C@@H]3C[C@H]2CO3)[C@@H](C)C1 [Example 340, (S)-3-(3-((1S,4S)-2-oxa-5-azabicyclo[2.2.1]heptan-5-yl)propyl)-7-((S)-4-acryloyl-2-methylpiperazin-1-yl)-9-chloro-10-(2,4,6-trifluorophenyl)-2H-[1,4]thiazino[2,3,4-ij]quinazolin-5(3H)-one] | – | – | % CAF @ 10 μM, 1 h (1 h): 96.9% |

More lines, main results first:

| % CAF @ 10 uM, 1h (10 uM, 1 h, Table 3) [%] | % CAF @ 10 uM, 1h (10 uM compound, 1 h incubation) [%] | SMILES | other results |
| --- | --- | --- | --- |
| – | 93.9 | C=CC(=O)N1[C@H](C)CN(c2nc(=O)n3c4c(c(-c5cc(Cl)c(F)cc5F)c(C(F)(F)F)cc24)SC[C@@H]3COC)C[C@@H]1C (atropisomer, axis not shown) [Example 563, (3S,10R)-7-((3S,5R)-4-acryloyl-3,5-dimethylpiperazin-1-yl)-10-(5-chloro-2,4-difluorophenyl)-3-(methoxymethyl)-9-(trifluoromethyl)-2,3-dihydro-5H-[1,4]thiazino[2,3,4-ij]quinazolin-5-one] | – |
| – | 61.2 | C=CC(=O)N1CCN(c2nc(=O)n3c4c(c(-c5cc(F)c(F)cc5F)c(Cl)cc24)SC[C@@H]3CN2CCN(CC(F)F)CC2)[C@@H](C)C1 [Example 480, (3S)-7-((S)-4-acryloyl-2-methylpiperazin-1-yl)-9-chloro-3-((4-(2,2-difluoroethyl)piperazin-1-yl)methyl)-10-(2,4,5-trifluorophenyl)-2H-[1,4]thiazino[2,3,4-ij]quinazolin-5(3H)-one] | – |
| – | 96 | C=CC(=O)N1CCN(c2nc(=O)n3c4c(c(-c5cc(Cl)c(F)cc5F)c(C(F)(F)F)cc24)SC[C@H](OC)C3)[C@@H](C)C1 [Example 533, (3R)-8-((S)-4-acryloyl-2-methylpiperazin-1-yl)-11-(5-chloro-2,4-difluorophenyl)-3-methoxy-10-(trifluoromethyl)-3,4-dihydro-2H,6H-[1,4]thiazepino[2,3,4-ij]quinazolin-6-one] | – |
| – | 95.7 | C=CC(=O)N1CCN(c2nc(=O)n3c4c(c(-c5ccc(F)cc5F)c(C(F)(F)F)cc24)SC[C@@H]3CC2CCOCC2)[C@@H](C)C1 [Example 437, (3S)-7-((S)-4-acryloyl-2-methylpiperazin-1-yl)-10-(2,4-difluorophenyl)-3-((tetrahydro-2H-pyran-4-yl)methyl)-9-(trifluoromethyl)-2H-[1,4]thiazino[2,3,4-ij]quinazolin-5(3H)-one] | – |
| – | 45 | C=CC(=O)N1C[C@H](C)N(c2nc(=O)n3c4c(c(-c5cc(F)c(F)cc5F)c(Cl)cc24)SC[C@@H]3CN2CCC3(CC2)COC3)C[C@H]1C (atropisomer, axis not shown) [Example 485, (3S,10R)-3-((2-oxa-7-azaspiro[3.5]nonan-7-yl)methyl)-7-((2S,5R)-4-acryloyl-2,5-dimethylpiperazin-1-yl)-9-chloro-10-(2,4,5-trifluorophenyl)-2,3-dihydro-5H-[1,4]thiazino[2,3,4-ij]quinazolin-5-one] | – |
| – | 66.8 | C=CC(=O)N1C[C@H](C)N(c2nc(=O)n3c4c(c(-c5ccc(F)cc5F)c(Cl)cc24)SC[C@@H]3COCCOC)C[C@H]1C [Example 501, (3S)-7-((2S,5R)-4-acryloyl-2,5-dimethylpiperazin-1-yl)-9-chloro-10-(2,4-difluorophenyl)-3-((2-methoxyethoxy)methyl)-2H-[1,4]thiazino[2,3,4-ij]quinazolin-5(3H)-one] | – |
| – | 61.3 | C=CC(=O)N1C[C@H](C)N(c2nc(=O)n3c4c(c(-c5ccc(F)cc5F)c(Cl)cc24)SC[C@@H]3CN2C[C@@H]3C[C@H]2CO3)C[C@H]1C [Example 519, (3S)-3-((1S,4S)-2-oxa-5-azabicyclo[2.2.1]heptan-5-ylmethyl)-7-((2S,5R)-4-acryloyl-2,5-dimethylpiperazin-1-yl)-9-chloro-10-(2,4-difluorophenyl)-2H-[1,4]thiazino[2,3,4-ij]quinazolin-5(3H)-one] | – |
| – | 96.7 | C=CC(=O)N1[C@H](C)CN(c2nc(=O)n3c4c(c(-c5ccc(F)cc5F)c(C(F)(F)F)cc24)SC[C@@H]3COC)C[C@@H]1C (atropisomer, axis not shown) [Example 547, (3S,10R)-7-((3S,5R)-4-acryloyl-3,5-dimethylpiperazin-1-yl)-10-(2,4-difluorophenyl)-3-(methoxymethyl)-9-(trifluoromethyl)-2,3-dihydro-5H-[1,4]thiazino[2,3,4-ij]quinazolin-5-one] | – |
| – | 95 | C=CC(=O)N1[C@H](C)CN(c2nc(=O)n3c4c(c(-c5ccc(F)cc5F)c(C(F)(F)F)cc24)SC[C@H](OC)C3)C[C@@H]1C [Example 524, (3R)-8-((3S,5R)-4-acryloyl-3,5-dimethylpiperazin-1-yl)-11-(2,4-difluorophenyl)-3-methoxy-10-(trifluoromethyl)-3,4-dihydro-2H,6H-[1,4]thiazepino[2,3,4-ij]quinazolin-6-one] | – |
| – | 87 | C=CC(=O)N1CCN(c2nc(=O)n3c4c(c(-c5ccc(F)cc5F)c(C(F)(F)F)cc24)S[C@@H](CN(C)C)C3)[C@@H](C)C1 [Example 442, (2S)-7-((S)-4-acryloyl-2-methylpiperazin-1-yl)-10-(2,4-difluorophenyl)-2-((dimethylamino)methyl)-9-(trifluoromethyl)-2,3-dihydro-5H-[1,4]thiazino[2,3,4-ij]quinazolin-5-one] | – |
